In patent US20050074879A1, “Antisense oligonucleotide modulation of STAT3 expression” (priority 2000, published 2005):
Oligonucleotides are written 5' to 3', each unit as a sugar letter and its base; * is a phosphorothioate linkage, no mark a phosphodiester; rarer units and linkages stand in square brackets, end groups in braces. Plain capitals give the bases only. e = 2'-O-(2-methoxyethyl) (MOE); [5mC] = 5-methylcytosine; d = 2'-deoxy (DNA)

Columns and labels:
Human STAT3 mRNA [1] = test: Human STAT3 mRNA dose response in T-24 cells, real-time PCR with PPS 2033 (Table 19); format: cell-based; settings: 16 hours, − decrease, + increase relative to untreated control
Method in brief: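 T-24 cells got oligonucleotide at 18.75, 37.5, 75 or 150 nM with LIPOFECTIN (3 ug/mL per 100 nM oligo) for 16 h. STAT3 mRNA was quantified by real-time RT-PCR with primer-probe set PPS 2033, normalized to RiboGreen total RNA, and expressed as change versus untreated cells.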

Human STAT3 mRNA [2] = test: Human STAT3 mRNA dose response in T-24 cells, real-time PCR with PPS 199 (Table 18); format: cell-based; settings: 16 hours, − decrease, + increase relative to untreated control
Method in brief: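 Bladder carcinoma T-24 cells transfected with oligonucleotide at 18.75, 37.5, 75 or 150 nM plus 3 ug/mL LIPOFECTIN per 100 nM, 16 h. STAT3 mRNA quantified by real-time PCR (PPS 199), normalized with Ribogreen; change given relative to untreated cells.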

Substance	Percent change of STAT3 expression using PPS 2033 (Human STAT3 mRNA [1]; 18.75 nM oligonucleotide)	Percent change of STAT3 expression using PPS 2033 (Human STAT3 mRNA [1]; 37.5 nM oligonucleotide)	Percent change of STAT3 expression using PPS 2033 (Human STAT3 mRNA [1]; 75 nM oligonucleotide)	Percent change of STAT3 expression using PPS 2033 (Human STAT3 mRNA [1]; 150 nM oligonucleotide)	Percent change of STAT3 expression using PPS 199 (Human STAT3 mRNA [2]; 18.75 nM oligonucleotide)	Percent change of STAT3 expression using PPS 199 (Human STAT3 mRNA [2]; 37.5 nM oligonucleotide)	Percent change of STAT3 expression using PPS 199 (Human STAT3 mRNA [2]; 75 nM oligonucleotide)	Percent change of STAT3 expression using PPS 199 (Human STAT3 mRNA [2]; 150 nM oligonucleotide)
337332 (antisense eG*eA*eA*eG*e[5mC]*d[5mC]*d[5mC]*dT*dT*dG*d[5mC]*d[5mC]*dA*dG*d[5mC]*e[5mC]*eA*eT*eG*eT) [compound 337332]	−66%	−79%	−85%	−91%	−63%	−79%	−87%	−92%
337333 (antisense eA*eA*eG*eG*eA*dG*dA*dA*dG*d[5mC]*d[5mC]*d[5mC]*dT*dT*dG*e[5mC]*e[5mC]*eA*eG*e[5mC]) [compound 337333]	−46%	−70%	−82%	−90%	−48%	−73%	−82%	−88%
337348 (antisense eT*e[5mC]*e[5mC]*eG*eA*dA*dT*dG*d[5mC]*d[5mC]*dT*d[5mC]*d[5mC]*dT*d[5mC]*e[5mC]*eT*eT*eG*eG) [compound 337348]	−53%	−76%	−83%	−86%	−61%	−77%	−82%	−86%
